Assay results from ChEMBL document CHEMBL1800051 (J Med Chem, 2010).

Tests used:
[1] = target: NAD(P)H dehydrogenase [quinone] 1 (Mus musculus) (UniProt Q64669); settings: Hepa-1c1c7
[2] = Inhibition of NF-kappaB expressed in human HEK293 cells by luciferase reporter gene based luminometric analysis; type: cell-based
RAW264.7 [3] = test: Inhibition of iNOS in mouse RAW264.7 cells assessed as inhibition of LPS-induced nitrite production at 50 uM treated 30 mins before LPS challenge measured after 24 hrs by Griess method; type: functional
cells = settings: Mus musculus, Hepa-1c1c7, 48 h
RAW264.7 [4] = test: Inhibition of iNOS in mouse RAW264.7 cells assessed as inhibition of LPS-induced nitrite production treated 30 mins before LPS challenge measured after 24 hrs by Griess method; type: functional, cell-based
[5] = Cytotoxicity against mouse Hepa-1c1c7 cells at 50 uM after 48 hrs by crystal violet staining; type: cell-based; settings: hepa-1c1c7, 48 h
[6] = target: T1, Ribosyldihydronicotinamide dehydrogenase [quinone] (Homo sapiens, UniProt P16083); test: Inhibition of human QR2 expressed in Escherichia coli BL21 (DE3) using MTT and NMeH as substrate assessed as formazan formation
T1 sequence (P16083 whole entry): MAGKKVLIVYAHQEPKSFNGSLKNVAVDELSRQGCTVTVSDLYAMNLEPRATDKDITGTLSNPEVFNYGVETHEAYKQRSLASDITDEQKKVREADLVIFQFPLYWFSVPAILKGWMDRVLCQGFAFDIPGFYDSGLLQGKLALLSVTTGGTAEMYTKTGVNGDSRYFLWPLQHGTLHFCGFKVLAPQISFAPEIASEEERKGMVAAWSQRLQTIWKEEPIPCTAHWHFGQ

HCT-116 = test: Cytotoxicity against human HCT116 cells; type: functional, cell-based
RAW264.7 [7] = test: Inhibition of iNOS in mouse RAW264.7 cells assessed as inhibition of LPS-induced nitrite production at 100 uM treated 30 mins before LPS challenge measured after 24 hrs by Griess method; type: functional

NAD(P)H dehydrogenase [quinone] 1 (Mus musculus), sequence (Q64669 whole entry): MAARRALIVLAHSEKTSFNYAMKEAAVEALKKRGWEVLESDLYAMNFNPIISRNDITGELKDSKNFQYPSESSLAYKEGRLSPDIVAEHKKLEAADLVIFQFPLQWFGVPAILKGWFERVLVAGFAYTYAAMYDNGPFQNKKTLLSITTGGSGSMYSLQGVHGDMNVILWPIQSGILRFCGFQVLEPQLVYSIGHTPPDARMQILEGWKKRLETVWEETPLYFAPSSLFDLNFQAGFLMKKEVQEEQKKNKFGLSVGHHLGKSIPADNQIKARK

SMILES | CD [1] [µM] | IC50 [2] [µM] | inhibition at 50 µM (RAW264.7 [3]) [%] | IC50 (RAW264.7 [4]) [µM] | further results
CS/C(S)=N/CCCC[S+](C)[O-] (centres undefined) | 0.26 | – | – | – | –
Cc1cc2nc3ccccc3nc2cc1C | 23 | 9.15 | 49.1 | – | –
Brc1cc(Br)c2nc3ccccc3nc2c1 | – | – | 16.4 | – | –
COc1ccc(OC)c2nc3ccccc3nc12 | – | – | 5 | – | –
COc1cccc2nc3cc4ccccc4cc3nc12 | 0.0047 | 2.1 | – | 7.2 | IC50 (cells): 9.58 µM
COc1ccc2nc3ccccc3nc2c1 | – | – | 12.5 | – | –
COc1cccc2nc3cc(C)c(C)cc3nc12 | 11.3 | – | 53.8 | 47 | –
COc1ccc(Br)c2nc3ccccc3nc12 | 4.3 | – | 47.5 | – | –
Cc1nc2cccc(O)c2nc1C | – | – | 0 | – | Activity [5]: Toxic
COc1cc(Br)cc2nc3cc(C)c(C)cc3nc12 | – | 6.64 | 8.8 | – | –
COc1cc(Br)c(Br)c2nc3ccccc3nc12 | – | – | 70.9 | 33.7 | –
C[S+]([O-])CCCCN=C=S (centres undefined) | 0.23 | – | – | – | –
COc1c(Br)ccc2nc3ccccc3nc12 | 29.4 | – | 44.7 | – | –
COc1cc(Br)c(Br)c2nc3cc(C)c(C)cc3nc12 | – | 1.39 | 77.7 | 34.5 | –
Cc1ccc2nc3ccccc3nc2c1 | – | – | 38.7 | – | –
COc1cccc2nc(C)c(C)nc12 | – | – | 0.8 | – | –
Oc1ccc(Br)c2nc3ccccc3nc12 | – | 5.19 | 84.7 | 31.5 | –

SMILES | CD [1] [µM] | IC50 [2] [µM] | inhibition at 50 µM (RAW264.7 [3]) [%] | IC50 (RAW264.7 [4]) [µM] | further results
Oc1cc(Br)c(Br)c2nc3ccccc3nc12 | – | 4.74 | 79.2 | 17.4 | –
Cc1nc2c(Br)cc(Br)c(O)c2nc1C | – | 1.93 | 81.3 | 45.6 | IC50 [6]: 2.9 µM
COc1cccc2nc3ccccc3nc12 | – | – | 2.4 | – | –
COc1c(Br)cc(Br)c2nc3ccccc3nc12 | – | – | 24.7 | – | –
COc1cc(Br)cc2nc3ccccc3nc12 | – | – | 68.6 | 26.5 | –
COc1cc2nc3ccccc3nc2cc1OC | – | – | 29.4 | – | –
Oc1cccc2nc3cc(Cl)c(Cl)cc3nc12 | 1.85 | – | 51.2 | 47.2 | –
COc1cc(Br)cc2nc3cc(Cl)c(Cl)cc3nc12 | 0.012 | 2.46 | 0 | – | –
Oc1c(Br)ccc2nc3ccccc3nc12 | – | 73 | – | – | IC50 (HCT-116): 0.1 µM; inhibition at 100 µM (RAW264.7 [7]): 31.5%
c1ccc2cc3nc4ccccc4nc3cc2c1 [BENZO[B]PHENAZINE] | 4.39 | 2.48 | 98.7 | 5.9 | Activity [5]: Toxic
COc1ccc(Br)c2nc3cc(C)c(C)cc3nc12 | 1.83 | 17 | 51.9 | 48.9 | –
Cc1cc(Br)cc2nc3ccccc3nc12 | – | – | 5.5 | – | –
Oc1cc(Br)cc2nc3ccccc3nc12 | – | 5.42 | 86.5 | 28.4 | –
Oc1c(Br)cc(Br)c2nc3ccccc3nc12 | 27 | – | 70.9 | 4.2 | –
COc1cccc2nc3cc(Cl)c(Cl)cc3nc12 | 9.42 | 16.2 | 14.6 | – | –
Cc1nc2cc3ccccc3cc2nc1C | 16.6 | – | 3.4 | – | Activity [5]: Toxic
O=[N+]([O-])c1cc(Br)c2nc3ccccc3nc2c1 | – | 13.1 | 79.7 | 7.2 | –
